Target: T1, Human CaV2.2 channels (Homo sapiens, UniProt Q00975)
T1 construct: expressed in transfected cells
Assay: Fluorescence assay for CaV2.2 channels using potassium depolarization to induce channel opening (FLIPR, Fluo 4)
Type: cell-based
Details: alternative assay buffer 30 mM KCl (inactivated channel state), HEK293 cells stably expressing human CaV2.2; for inhibition at 3 µM: HEK293, 3 μM test compound, read-out: Activity Category: %-Inhib (CaV2.2) @3 μM @30 mM KCl; for Activity Category: %-Inhib (CaV2.2) @3 μM @30 mM KCl: 3 μM test compound
In short: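 HEK293 cells stably co-expressing CaV2.2 with alpha2-delta and beta subunits plus Kir2.3, loaded with 2 μM Fluo 4 and pre-incubated 15 min at 25° C with compound in 1 mM or 30 mM KCl buffer (pH 7.4; latter promotes inactivated state). Depolarized by KCl addition; peak fluorescence amplitude normalized to baseline gives inhibition.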

T1 sequence (P54289 947-1103): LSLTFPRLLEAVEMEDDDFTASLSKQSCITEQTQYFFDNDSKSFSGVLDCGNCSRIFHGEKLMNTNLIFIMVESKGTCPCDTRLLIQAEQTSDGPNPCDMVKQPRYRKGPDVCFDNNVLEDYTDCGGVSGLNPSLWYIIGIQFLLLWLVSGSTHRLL
T1 sequence (P54289 25-946): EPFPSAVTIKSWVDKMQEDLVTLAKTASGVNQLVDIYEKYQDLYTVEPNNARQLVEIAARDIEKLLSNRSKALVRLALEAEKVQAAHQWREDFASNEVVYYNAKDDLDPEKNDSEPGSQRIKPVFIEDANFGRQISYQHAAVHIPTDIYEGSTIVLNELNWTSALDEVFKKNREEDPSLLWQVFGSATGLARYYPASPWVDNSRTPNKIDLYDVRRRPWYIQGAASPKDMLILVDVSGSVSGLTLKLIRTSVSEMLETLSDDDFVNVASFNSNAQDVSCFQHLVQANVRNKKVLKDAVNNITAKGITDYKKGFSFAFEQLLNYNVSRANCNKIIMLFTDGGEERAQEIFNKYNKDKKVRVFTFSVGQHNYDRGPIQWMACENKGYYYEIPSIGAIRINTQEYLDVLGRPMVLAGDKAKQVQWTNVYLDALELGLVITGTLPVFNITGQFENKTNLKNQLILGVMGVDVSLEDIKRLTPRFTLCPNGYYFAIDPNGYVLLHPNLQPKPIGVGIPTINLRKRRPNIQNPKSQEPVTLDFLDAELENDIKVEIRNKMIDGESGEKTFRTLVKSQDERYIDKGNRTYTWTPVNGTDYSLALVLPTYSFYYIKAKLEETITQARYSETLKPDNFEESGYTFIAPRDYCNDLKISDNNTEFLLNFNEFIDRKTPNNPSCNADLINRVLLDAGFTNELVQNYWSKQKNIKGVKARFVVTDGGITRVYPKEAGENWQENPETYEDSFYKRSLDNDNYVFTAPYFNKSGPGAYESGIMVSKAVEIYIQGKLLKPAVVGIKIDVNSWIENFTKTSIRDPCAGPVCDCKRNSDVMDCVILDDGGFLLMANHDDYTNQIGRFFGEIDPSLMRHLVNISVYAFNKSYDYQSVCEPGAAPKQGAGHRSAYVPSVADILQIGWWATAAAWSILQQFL
T1 sequence (P54284 whole entry, further chain): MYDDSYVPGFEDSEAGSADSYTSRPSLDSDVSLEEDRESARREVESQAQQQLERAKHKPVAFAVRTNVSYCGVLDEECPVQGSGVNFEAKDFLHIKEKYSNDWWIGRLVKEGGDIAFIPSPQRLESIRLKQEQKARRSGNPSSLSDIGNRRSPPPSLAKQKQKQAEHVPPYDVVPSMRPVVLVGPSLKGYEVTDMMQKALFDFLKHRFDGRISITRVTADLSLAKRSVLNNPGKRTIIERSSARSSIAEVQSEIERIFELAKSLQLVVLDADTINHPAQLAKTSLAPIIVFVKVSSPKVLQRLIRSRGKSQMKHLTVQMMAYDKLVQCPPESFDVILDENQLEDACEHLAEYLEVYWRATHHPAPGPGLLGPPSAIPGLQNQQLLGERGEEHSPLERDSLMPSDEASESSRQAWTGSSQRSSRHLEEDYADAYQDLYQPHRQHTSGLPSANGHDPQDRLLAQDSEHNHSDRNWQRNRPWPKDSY
T1 sequence (Q00975 whole entry): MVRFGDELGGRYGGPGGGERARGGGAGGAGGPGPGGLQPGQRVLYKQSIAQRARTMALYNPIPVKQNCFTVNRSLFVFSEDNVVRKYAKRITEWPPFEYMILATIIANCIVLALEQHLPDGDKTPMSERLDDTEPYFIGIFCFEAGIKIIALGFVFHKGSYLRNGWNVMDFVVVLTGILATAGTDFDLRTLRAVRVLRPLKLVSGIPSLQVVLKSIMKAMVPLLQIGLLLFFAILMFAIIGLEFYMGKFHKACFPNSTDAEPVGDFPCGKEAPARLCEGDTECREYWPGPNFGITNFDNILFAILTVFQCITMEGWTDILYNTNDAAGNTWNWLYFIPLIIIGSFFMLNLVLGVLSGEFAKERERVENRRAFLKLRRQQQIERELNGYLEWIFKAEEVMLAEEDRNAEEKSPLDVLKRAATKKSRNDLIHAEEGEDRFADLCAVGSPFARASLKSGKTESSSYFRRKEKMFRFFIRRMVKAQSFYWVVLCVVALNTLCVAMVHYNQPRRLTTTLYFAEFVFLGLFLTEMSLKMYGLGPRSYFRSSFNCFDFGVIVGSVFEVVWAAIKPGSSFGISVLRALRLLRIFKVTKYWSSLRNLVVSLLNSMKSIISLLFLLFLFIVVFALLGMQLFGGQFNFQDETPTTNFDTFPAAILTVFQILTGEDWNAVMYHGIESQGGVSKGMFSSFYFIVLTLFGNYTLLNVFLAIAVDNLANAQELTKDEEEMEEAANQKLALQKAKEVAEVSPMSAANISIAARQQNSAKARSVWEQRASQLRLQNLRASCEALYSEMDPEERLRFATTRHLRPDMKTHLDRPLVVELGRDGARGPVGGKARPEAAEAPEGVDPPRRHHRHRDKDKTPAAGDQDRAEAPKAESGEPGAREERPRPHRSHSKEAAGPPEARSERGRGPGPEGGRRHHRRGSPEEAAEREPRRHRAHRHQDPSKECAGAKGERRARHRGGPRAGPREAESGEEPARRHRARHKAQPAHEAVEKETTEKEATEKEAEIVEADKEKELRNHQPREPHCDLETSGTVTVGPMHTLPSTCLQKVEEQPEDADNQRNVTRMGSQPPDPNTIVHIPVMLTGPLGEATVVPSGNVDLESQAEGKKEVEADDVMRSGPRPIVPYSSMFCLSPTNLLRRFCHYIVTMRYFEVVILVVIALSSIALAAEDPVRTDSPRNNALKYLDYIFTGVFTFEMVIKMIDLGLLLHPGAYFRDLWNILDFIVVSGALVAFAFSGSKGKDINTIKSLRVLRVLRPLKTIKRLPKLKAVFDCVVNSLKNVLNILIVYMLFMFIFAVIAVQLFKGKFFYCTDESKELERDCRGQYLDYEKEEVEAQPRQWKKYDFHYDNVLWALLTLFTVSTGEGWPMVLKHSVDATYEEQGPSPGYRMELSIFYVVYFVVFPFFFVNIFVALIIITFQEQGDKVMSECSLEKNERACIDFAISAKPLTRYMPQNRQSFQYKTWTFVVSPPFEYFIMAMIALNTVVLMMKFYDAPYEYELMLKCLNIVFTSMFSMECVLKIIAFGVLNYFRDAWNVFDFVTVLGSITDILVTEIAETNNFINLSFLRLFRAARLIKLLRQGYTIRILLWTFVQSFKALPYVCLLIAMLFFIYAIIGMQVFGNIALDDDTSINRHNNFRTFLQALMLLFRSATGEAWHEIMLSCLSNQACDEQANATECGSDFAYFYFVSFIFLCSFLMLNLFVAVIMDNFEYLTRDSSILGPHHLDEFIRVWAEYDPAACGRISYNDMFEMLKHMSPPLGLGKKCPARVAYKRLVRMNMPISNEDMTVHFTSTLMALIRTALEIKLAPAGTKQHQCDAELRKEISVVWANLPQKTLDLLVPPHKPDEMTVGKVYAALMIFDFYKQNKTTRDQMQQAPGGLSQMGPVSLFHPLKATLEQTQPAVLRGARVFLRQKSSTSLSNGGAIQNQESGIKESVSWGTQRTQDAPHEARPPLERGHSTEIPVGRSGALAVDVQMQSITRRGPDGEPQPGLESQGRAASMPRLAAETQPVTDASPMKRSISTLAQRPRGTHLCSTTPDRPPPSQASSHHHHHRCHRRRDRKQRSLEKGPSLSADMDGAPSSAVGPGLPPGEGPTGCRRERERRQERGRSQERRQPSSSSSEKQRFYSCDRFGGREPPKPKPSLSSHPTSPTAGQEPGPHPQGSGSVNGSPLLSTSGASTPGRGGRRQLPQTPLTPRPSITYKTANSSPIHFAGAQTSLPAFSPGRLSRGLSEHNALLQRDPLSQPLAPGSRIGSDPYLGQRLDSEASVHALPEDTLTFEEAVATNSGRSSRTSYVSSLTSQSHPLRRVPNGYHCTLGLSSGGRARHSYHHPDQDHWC

Compound	inhibition at 3 µM [%]	Activity Category: %-Inhib (CaV2.2) @3 μM @30 mM KCl
CC1(S(=O)(=O)c2cccc(OC(F)(F)F)c2)CCOC(c2ncc(S(C)(=O)=O)cc2Cl)C1 (centres unmarked) [SC-218, 3-Chloro-5-methylsulfonyl-2-[4-methyl-4-[[3-(trifluoromethyloxy)-phenyl]sulfonyl]-tetrahydro-pyran-2-yl]-pyridine]	75 to 95	–
CC1(S(=O)(=O)c2cccc(OC(F)(F)F)c2)CCOC(c2ncc(S(C)(=O)=O)cc2Cl)C1 (centres unmarked) [SC-219, 3-Chloro-5-methylsulfonyl-2-[4-methyl-4-[[3-(trifluoromethyloxy)-phenyl]sulfonyl]-tetrahydro-pyran-2-yl]-pyridine]	–	A (%-Inhibition >95%)
CC1(S(=O)(=O)c2cccc(OC(F)(F)F)c2)CCOC(c2ncc(C(F)(F)F)cc2S(C)(=O)=O)C1 (centres unmarked) [SC-220, 3-Methylsulfonyl-2-[4-methyl-4-[[3-(trifluoromethyloxy)-phenyl]sulfonyl]-tetrahydro-pyran-2-yl]-5-(trifluoromethyl)-pyridine]	> 95	–
CC1(S(=O)(=O)c2cccc(OC(F)(F)F)c2)CCOC(c2ncc(C(F)(F)F)cc2S(C)(=O)=O)C1 (centres unmarked) [SC-221, 3-Methylsulfonyl-2-[4-methyl-4-[[3-(trifluoromethyloxy)-phenyl]sulfonyl]-tetrahydro-pyran-2-yl]-5-(trifluoromethyl)-pyridine]	–	B (%-Inhibition >75% up to ≤95%)
CC1(S(=O)(=O)c2cccc(C(F)(F)F)c2)CCOC(c2ncc(S(C)(=O)=O)cc2C(F)(F)F)C1 (centres unmarked) [SC-222, 5-Methylsulfonyl-2-[4-methyl-4-[[3-(trifluoromethyl)phenyl]sulfonyl]-tetrahydro-pyran-2-yl]-3-(trifluoromethyl)-pyridine]	75 to 95	–
COc1cc(S(C)(=O)=O)cnc1C1CC(C)(S(=O)(=O)c2cccc(C(F)(F)F)c2)CCO1 (centres unmarked) [SC-224, 3-Methoxy-5-methylsulfonyl-2-[4-methyl-4-[[3-(trifluoromethyl)phenyl]sulfonyl]-tetrahydro-pyran-2-yl]-pyridine]	75 to 95	–
CC1(S(=O)(=O)c2cccc(C(F)(F)F)c2)CCOC(c2ncc(Cl)cc2S(C)(=O)=O)C1 (centres unmarked) [SC-226, 5-Chloro-3-methylsulfonyl-2-[4-methyl-4-[[3-(trifluoromethyl)phenyl]sulfonyl]-tetrahydro-pyran-2-yl]-pyridine]	75 to 95	–
C[S+]([O-])c1cc(C(F)(F)F)cnc1C1CC(C)(S(=O)(=O)c2cccc(C(F)(F)F)c2)CCO1 (centres unmarked) [SC-228, 3-(Methylsulfinyl)-2-[4-methyl-4-[[3-(trifluoromethyl)phenyl]sulfonyl]-tetrahydro-pyran-2-yl]-5-(trifluoromethyl)-pyridine]	> 95	–
C[S+]([O-])c1cc(C(F)(F)F)cnc1C1CC(C)(S(=O)(=O)c2cccc(C(F)(F)F)c2)CCO1 (centres unmarked) [SC-229, 3-(Methylsulfinyl)-2-[4-methyl-4-[[3-(trifluoromethyl)phenyl]sulfonyl]-tetrahydro-pyran-2-yl]-5-(trifluoromethyl)-pyridine]	–	B (%-Inhibition >75% up to ≤95%)
C[S+]([O-])c1cc(C(F)(F)F)cnc1C1CC(C)(S(=O)(=O)c2cccc(C(F)(F)F)c2)CCO1 (centres unmarked) [SC-230, 3-(Methylsulfinyl)-2-[4-methyl-4-[[3-(trifluoromethyl)phenyl]sulfonyl]-tetrahydro-pyran-2-yl]-5-(trifluoromethyl)-pyridine]	–	B (%-Inhibition >75% up to ≤95%)
C[S+]([O-])c1cc(C(F)(F)F)cnc1C1CC(C)(S(=O)(=O)c2cccc(C(F)(F)F)c2)CCO1 (centres unmarked) [SC-231, 3-(Methylsulfinyl)-2-[4-methyl-4-[[3-(trifluoromethyl)phenyl]sulfonyl]-tetrahydro-pyran-2-yl]-5-(trifluoromethyl)-pyridine]	–	B (%-Inhibition >75% up to ≤95%)
C[S+]([O-])c1cnc(C2CC(C)(S(=O)(=O)c3cccc(C(F)(F)F)c3)CCO2)c(Cl)c1 (centres unmarked) [SC-233, 3-Chloro-5-(methylsulfinyl)-2-[4-methyl-4-[[3-(trifluoromethyl)phenyl]sulfonyl]-tetrahydro-pyran-2-yl]-pyridine]	40 to 75	–
CC1(S(=O)(=O)c2cccc(C(F)(F)F)c2)CCOC(c2ncc(C(F)F)cc2Cl)C1 (centres unmarked) [SC-236, 3-Chloro-5-(difluoro-methyl)-2-[4-methyl-4-[[3-(trifluoromethyl)phenyl]sulfonyl]-tetrahydro-pyran-2-yl]-pyridine]	75 to 95	–
CCC1(S(=O)(=O)c2cccc(C(F)(F)F)c2)CCOC(c2noc(C3CC3)n2)C1 (centres unmarked) [SC-238, 5-Cyclopropyl-3-[4-ethyl-4-[[3-(trifluoromethyl)phenyl]sulfonyl]-tetrahydro-pyran-2-yl]-[1,2,4]oxadiazole]	75 to 95	–
CCC1(S(=O)(=O)c2cccc(C(F)(F)F)c2)CCOC(c2nnc(C(F)(F)F)o2)C1 (centres unmarked) [SC-240, 2-[4-Ethyl-4-[[3-(trifluoromethyl)phenyl]sulfonyl]-tetrahydro-pyran-2-yl]-5-(trifluoromethyl)-[1,3,4]oxadiazole]	–	C (%-Inhibition >40% up to ≤75%)
CCC1(S(=O)(=O)c2cccc(C(F)(F)F)c2)CCOC(c2nnc(C(F)(F)F)o2)C1 (centres unmarked) [SC-241, 2-[4-Ethyl-4-[[3-(trifluoromethyl)phenyl]sulfonyl]-tetrahydro-pyran-2-yl]-5-(trifluoromethyl)-[1,3,4]oxadiazole]	–	B (%-Inhibition >75% up to ≤95%)
CC1(S(=O)(=O)c2cccc(C(F)(F)F)c2)CCOC(c2ccc(Cl)cn2)C1 (centres unmarked) [SC-243, 5-Chloro-2-[4-methyl-4-[[3-(trifluoromethyl)phenyl]sulfonyl]-tetrahydro-pyran-2-yl]-pyridine]	> 95	–
CC1(S(=O)(=O)c2cccc(C(F)(F)F)c2)CCOC(c2ccc(Cl)cn2)C1 (centres unmarked) [SC-244, 5-Chloro-2-[4-methyl-4-[[3-(trifluoromethyl)phenyl]sulfonyl]-tetrahydro-pyran-2-yl]-pyridine]	–	B (%-Inhibition >75% up to ≤95%)
COc1cc(OC)c(C2CC(C)(S(=O)(=O)c3cccc(C(F)(F)F)c3)CCO2)cn1 (centres unmarked) [SC-245, 2,4-Dimethoxy-5-[4-methyl-4-[[3-(trifluoromethyl)phenyl]sulfonyl]-tetrahydro-pyran-2-yl]-pyridine]	75 to 95	–
COc1cc(OC)c(C2CC(C)(S(=O)(=O)c3cccc(C(F)(F)F)c3)CCO2)cn1 (centres unmarked) [SC-246, 2,4-Dimethoxy-5-[4-methyl-4-[[3-(trifluoromethyl)phenyl]sulfonyl]-tetrahydro-pyran-2-yl]-pyridine]	–	A (%-Inhibition >95%)
COc1cc(C)c(C2CC(C)(S(=O)(=O)c3cccc(C(F)(F)F)c3)CCO2)cn1 (centres unmarked) [SC-248, 2-Methoxy-4-methyl-5-[4-methyl-4-[[3-(trifluoromethyl)phenyl]sulfonyl]-tetrahydro-pyran-2-yl]-pyridine]	75 to 95	–
COc1cc(O)c(C2CC(C)(S(=O)(=O)c3cccc(C(F)(F)F)c3)CCO2)cn1 (centres unmarked) [SC-251, 2-Methoxy-5-[4-methyl-4-[[3-(trifluoromethyl)phenyl]sulfonyl]-tetrahydro-pyran-2-yl]-pyridin-4-ol]	40 to 75	–
COc1cc(OC(F)F)c(C2CC(C)(S(=O)(=O)c3cccc(C(F)(F)F)c3)CCO2)cn1 (centres unmarked) [SC-253, 4-(Difluoro-methoxy)-2-methoxy-5-[4-methyl-4-[[3-(trifluoromethyl)phenyl]sulfonyl]-tetrahydro-pyran-2-yl]-pyridine]	75 to 95	–

— US9926302B2, “Heteroaryl substituted heterocyclyl sulfones” (priority 2014, dated 2018)
